Measured values published in patent publication US20140301961A1, “COMPOUNDS WITH ANTI-AGING ACTIVITIES” (priority 2011, published 2014).

Columns and labels:
[1] = system: MMP1; test: PMA inflammation induced MMP1 production in human dermal fibroblasts; type: cell-based; conditions: for inhibition of PMA inflammation induced MMP1 production: human dermal fibroblasts, PMA 10 nM, 24 h (FIG. 3); for MMP production: summary of FIGS. 2, 3 and 4 (UV skin explants and PMA dermal fibroblasts)
Method: (§1) MMP-inhibitory activity for compounds of the invention was also assessed on human dermal fibroblasts. Dermal fibroblasts were cultured in Dulbecco's Modified Eagle Medium (DMEM) (Invitrogen) with 10% EBS (ex. Invitrogen) and 1% Pencillin/Streptavidin (ex. Invitrogen). To induce inflammation in the cells, PMA (phorbol myristate acetate) (ex. Sigma) was used at a concentration of 10 nM. […] The cells were stimulated for 24 h and the culture supernatant was collected and stored at −20° C. until further analysis. Fluorokine MultiAnalyte Profiling (xMAP) using the BioPlex (ex. Biorad) dual laser flow-based sorting and detection analyzers manufactured by Luminex corporation (Luminex, Austin, Tex.) was employed to measure levels of MMP in conditioned media samples of stimulated dermal fibroblasts. The technology incorporated polystyrene microspheres dyed internally with differing ratios of two spectrally distinct fluorophores to create a family of different spectrally addressed bead sets. The bead utilized in this study was conjugated with a biotinylated capture antibody specific for a unique MMPs, The assay was performed without antecedent serum depletion. Results were compared with medium from cells treated with vehicle only (DMSO). The assays utilized a 96-well microplate format and were processed according to the manufacturer's protocol, including generation of a standard curve for each target prepared in background assay diluents. Values that fell within the linear range of the calibration assay were accepted. Samples were analyzed using the Bio-Plex suspension array system and Bio-Plex Manager software 4.0 (Bio-Rad Laboratories, Hercules, Calif.). Quantities were determined by comparison to standard curves obtained for the different MMP.

[2] = system: MMP3; test: PMA inflammation induced MMP3 production in human dermal fibroblasts; type: cell-based; conditions: PMA 10 nM, 24 h (FIG. 4)
Method: as §1

[3] = system: pro-collagen type 1; test: Pro-collagen 1 ELISA in dermal fibroblasts; type: cell-based, human; conditions: 24 hour stimulation, 3 donors (FIG. 5)
Method: (§2) MMP-inhibitory activity for compounds of the invention was also assessed on human dermal fibroblasts. Dermal fibroblasts were cultured in Dulbecco's Modified Eagle Medium (DMEM) (Invitrogen) with 10% EBS (ex. Invitrogen) and 1% Pencillin/Streptavidin (ex. Invitrogen). To induce inflammation in the cells, PMA (phorbol myristate acetate) (ex. Sigma) was used at a concentration of 10 nM. […] The cells were stimulated for 24 h and the culture supernatant was collected and stored at −20° C. until further analysis.
Fibroblast cells were cultured as outlined in Example 3.1 and treated with compounds of the invention The secretion of pro-collagen in the cell culture supernatants were analyzed using Pro-Collagen 1 specific ELISA (#8003; ex. Quidel). Results were compared with cell culture supernatants from DMSO vehicle treated cells. The assays utilized a 96-well microplate format and were processed according to the manufacturer's protocol, including generation of a standard curve prepared in background assay diluents. Absorbance of the assay dye was read at a Synergy HT plate reader. Values that fell within the linear range of the calibration assay were accepted. Quantities were determined by comparison to standard curve obtained for pro-collagen 1.

[4] = system: VEGF; test: Inflammation induced VEGF synthesis in cultured dermal fibroblasts; type: cell-based, human; conditions: inflammatory inducer PMA (FIG. 10)
Method: as §2
Fluorokine MultiAnalyte Profiling (xMAP) using the BioPlex (ex. Biorad) dual laser flow-based sorting and detection analyzers manufactured by Luminex corporation (Luminex, Austin, Tex.) was employed to measure levels of MMP in conditioned media samples of stimulated dermal fibroblasts. The technology incorporated polystyrene microspheres dyed internally with differing ratios of two spectrally distinct fluorophores to create a family of different spectrally addressed bead sets. The bead utilized in this study was conjugated with a biotinylated capture antibody specific for a unique MMPs, The assay was performed without antecedent serum depletion. Results were compared with medium from cells treated with vehicle only (DMSO). The assays utilized a 96-well microplate format and were processed according to the manufacturer's protocol, including generation of a standard curve for each target prepared in background assay diluents. Values that fell within the linear range of the calibration assay were accepted. Samples were analyzed using the Bio-Plex suspension array system and Bio-Plex Manager software 4.0 (Bio-Rad Laboratories, Hercules, Calif.). Quantities were determined by comparison to standard curves obtained for the different MMP.
Cell culture and cytokine analysis was carried out on human dermal fibroblasts as described in Example 3.1. The methodology was adapted in order analyze VEGF production.

[5] = system: hydroxysteroid (17-beta) dehydrogenase 2 (HSD17B2); test: Affymetrix gene array on skin explants, HSD17B2; type: cell-based, human; conditions: topical, 24 hours
Excerpt: (§3) Subcutaneous fat from full thickness skin, obtained from surgical waste material from breast reduction procedures, was removed with a scalpel. Three healthy Caucasian female donors were used for this study. The female donors differed from those of the skin-treatment study outlined previously 8 mm punch biopsies were taken from the skin (and these biopsies are now referred to as skin explants). Skin explants were put on Milipore cell culture inserts (12 mm diameter). Inserts containing skin explants were put in 6-well plates (one insert/well) and 1 mL of supplemented keratinocyte medium (ex Cascade Biologics) was added to each well. A tretinoin-containing cream (Aberela® ex. Janssen): 0.05% tretinoin in the cream, was applied topically to each explant (5 μL/cm^2) using a positive displacement pipette. A placebo cream without tretinoin was used as a control. The skin explants were incubated with tretinoin for 24 hours at 37° C. in 5% CO2-humidified air.
(§4) RNA concentration was measured with ND-1000 spectrophotometer (ex. NanoDrop Technologies) and RNA quality was evaluated using the Agilent 2100 bioanalyzer system (ex. Agilent Technologies). 250 nanograms of total RNA from each skin or skin explant sample was used to prepare biotinylated fragmented cRNA according to the GeneChip® 3′IVT Express Kit Manual (PN702646 Rev 1, ex. Affymetrix Inc.). Affymetrix GeneChip® expression arrays (Human Genome U133 Plus 2.0) were hybridized for 16 hours in a 45° C. incubator, rotated at 60 rpm. According to the GeneChip Expression Wash, Stain and Scan Manual (PN 702731 Rev 2, ex. Affymetrix Inc.) the arrays were washed and stained using the Fluidics Station 450 and scanned using the GeneChip® Scanner 3000 7G.
Analysis of the gene expression data was carried out in the statistical computing language R (http://www.r-project.org) using packages available from the Bioconductor project (www.bioconductor.org). The raw data was normalized using the robust multi-array average (RMA) method. In order to search for differentially expressed genes between the X samples and the Y samples group an empirical Bayes moderated t-test was then applied using the ‘limma’ package.
Skin explants were obtained as detailed in Example 3.1.

[6] = In vitro skin permeation, static Franz diffusion cells; type: in vitro ADME; conditions: 0.5% w/w in a basic formulation, topical, 24 hours, pig skin (FIG. 1)
Excerpt: The in vitro skin permeation experiments were developed and validated according to the Organization for Economic Co-Operation and Development adopted guideline 428 (OECD guideline for the testing of chemicals. Skin absorption: in vitro method. Guideline 428 (Paris, April 2004, updated January 2011)).
For this investigation, static Franz glass diffusion cells (Permegear, USA) were used. These cells consist of donor and receptor chambers in between which a piece of porcine skin was positioned (thickness 800 μm). About 20 mg/cm^2 of each formulation were applied on the skin surface through the donor compartment in triplicate for each formulation. The pig skin samples were equilibrated for 30 minutes, and air bubbles were removed. The cells were kept at constant temperature with a circulating water flow at 37° C. and the receptor compartment content (ethanol/water 50:50) was continuously agitated by magnetic stirrers.
After an exposure time of 24 hours, the diffusion cells were dismounted and each active was analysed in each compartment. • the non absorbable dose: the skin surface was washed with 10.0 ml of methanol and one tape-strip was made in order to remove the residual donor samples. • the potentially absorbable dose: the tape stripping procedure was used in order to separate the stratum corneum from the skin sample. […]

[7] = system: heparin-binding EGF-like growth factor (HBEGF); test: Affymetrix gene array on skin explants, HBEGF; type: cell-based, human; conditions: topical, 24 hours, cut-off |log 2−ratio|>1
Excerpt: as §3, §4
Analysis of the gene expression data was carried out in the statistical computing language R (http://www.r-project.org) using packages available from the Bioconductor project (www.bioconductor.org). The raw data was normalized using the robust multi-array average (RMA) method. […]

| penetration into the skin [6] | SMILES | inhibition of PMA inflammation induced MMP1 production [1] | MMP production [1] | inhibition of PMA inflammation induced MMP3 production [2] | production of pro-collagen type 1 [3] | inflammatory induced VEGF synthesis [4] | HSD17B2 gene expression [5] | HBEGF gene expression [7] |
| --- | --- | --- | --- | --- | --- | --- | --- | --- |
| – | C=C1C[C@]23C[C@@]1(O)CC[C@H]2[C@@]12C=C[C@H](O)[C@@](C)(C(=O)O1)[C@@H]2[C@@H]3C(=O)O [Gibberellic acid, (3S,3aS,4S,4aS,7S,9aR,9bR,12S)-7,12-dihydroxy-3-methyl-6-methylene-2-oxoperhydro-4a,7-methano-9b,3-propenoazuleno[1,2-b]furan-4-carboxylic acid] | inhibition | ability to inhibit MMP production | inhibition | significantly increase | reduce inflammatory induced VEGF synthesis | −0.52 log 2−ratio | – |
| penetration of each active into the skin | CC(=O)N[C@@H](CC(=O)O)C(=O)O [N-Acetyl aspartic acid, (2S)-2-Acetamidobutanedioic acid] | inhibition | ability to inhibit MMP production | inhibition | significantly increase | reduce inflammatory induced VEGF synthesis | −1.46 log 2−ratio | No |
| penetration of each active into the skin | O=C1C[C@@H](c2ccc(O)cc2)Oc2cc(O)cc(O)c21 [Naringenin, (S)-2,3-Dihydro-5,7-dihydroxy-2-(4-hydroxyphenyl)-4H-1-benzopyran-4-one] | inhibition | ability to inhibit MMP production | inhibition | convincing trend towards increasing | reduce inflammatory induced VEGF synthesis | −0.83 log 2−ratio | 1.19 log 2−ratio |
